According to PubChem BioAssay (NCI):
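Test compounds were applied to cells in 96-well plates for 48 hours at 5 doses. TGI is the concentration that stops growth completely.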

Assays:
Experiment in all cases: NCI anticancer screen, dose series, 48 h
UACC-62 melanoma = test system: UACC-62 melanoma
SF-539 CNS = test system: SF-539 CNS
K-562 leukemia = test system: K-562 leukemia
DMS 114 small cell lung = test system: DMS 114 small cell lung
HT29 colon = test system: HT29 colon
NCI-H522 lung = test system: NCI-H522 lung
CCRF-CEM leukemia = test system: CCRF-CEM leukemia
SF-295 CNS = test system: SF-295 CNS
DLD-1 colon = test system: DLD-1 colon
SR leukemia = test system: SR leukemia
OVCAR-8 ovarian = test system: OVCAR-8 ovarian
UACC-257 melanoma = test system: UACC-257 melanoma
M19-MEL melanoma = test system: M19-MEL melanoma
HOP-62 NSCLC = test system: HOP-62 NSCLC
HL-60(TB) leukemia = test system: HL-60(TB) leukemia
U251 CNS = test system: U251 CNS
HOP-18 NSCLC = test system: HOP-18 NSCLC
RXF 393 renal = test system: RXF 393 renal
HCT-116 colon = test system: HCT-116 colon
A549 NSCLC = test system: A549 NSCLC
SK-MEL-5 melanoma = test system: SK-MEL-5 melanoma
SK-MEL-28 melanoma = test system: SK-MEL-28 melanoma
IGROV1 ovarian = test system: IGROV1 ovarian
LXFL 529 NSCLC = test system: LXFL 529 NSCLC
OVCAR-4 ovarian = test system: OVCAR-4 ovarian
OVCAR-5 ovarian = test system: OVCAR-5 ovarian
EKVX NSCLC = test system: EKVX NSCLC
SF-268 CNS = test system: SF-268 CNS
SK-MEL-2 melanoma = test system: SK-MEL-2 melanoma
OVCAR-3 ovarian = test system: OVCAR-3 ovarian
COLO 205 colon = test system: COLO 205 colon
DMS 273 small cell lung = test system: DMS 273 small cell lung
786-0 renal = test system: 786-0 renal
HCC-2998 colon = test system: HCC-2998 colon
ACHN renal = test system: ACHN renal
MOLT-4 leukemia = test system: MOLT-4 leukemia
M14 melanoma = test system: M14 melanoma
SK-OV-3 ovarian = test system: SK-OV-3 ovarian
SNB-75 CNS = test system: SNB-75 CNS
KM12 colon = test system: KM12 colon
SNB-78 CNS = test system: SNB-78 CNS
HCT-15 colon = test system: HCT-15 colon
UO-31 renal = test system: UO-31 renal
SNB-19 CNS = test system: SNB-19 CNS
NCI-H460 lung = test system: NCI-H460 lung
SN12C renal = test system: SN12C renal
RPMI-8226 leukemia = test system: RPMI-8226 leukemia
MALME-3M melanoma = test system: MALME-3M melanoma
NCI-H23 lung = test system: NCI-H23 lung
SW-620 colon = test system: SW-620 colon
KM20L2 colon = test system: KM20L2 colon
HOP-92 NSCLC = test system: HOP-92 NSCLC
A498 renal = test system: A498 renal
NCI-H226 lung = test system: NCI-H226 lung
TK-10 renal = test system: TK-10 renal
CAKI-1 renal = test system: CAKI-1 renal

Cc1noc(C)c1C1=CCCCc2ccccc21
TGI (UACC-62 melanoma): > 100 µM
TGI (SF-539 CNS): > 100 µM
TGI (K-562 leukemia): > 100 µM
TGI (DMS 114 small cell lung): > 100 µM
TGI (HT29 colon): > 100 µM
TGI (NCI-H522 lung): > 100 µM
TGI (CCRF-CEM leukemia): > 100 µM
TGI (SF-295 CNS): > 100 µM
TGI (DLD-1 colon): > 100 µM
TGI (SR leukemia): 74.9 µM
TGI (OVCAR-8 ovarian): > 100 µM
TGI (UACC-257 melanoma): > 100 µM
TGI (M19-MEL melanoma): > 100 µM
TGI (HOP-62 NSCLC): > 100 µM
TGI (HL-60(TB) leukemia): 62.7 µM
TGI (U251 CNS): > 100 µM
TGI (HOP-18 NSCLC): > 100 µM
TGI (RXF 393 renal): > 100 µM
TGI (HCT-116 colon): > 100 µM
TGI (A549 NSCLC): > 100 µM
TGI (SK-MEL-5 melanoma): > 100 µM
TGI (SK-MEL-28 melanoma): > 100 µM
TGI (IGROV1 ovarian): > 100 µM
TGI (LXFL 529 NSCLC): > 100 µM
TGI (OVCAR-4 ovarian): > 100 µM
TGI (OVCAR-5 ovarian): > 100 µM
TGI (EKVX NSCLC): > 100 µM
TGI (SF-268 CNS): > 100 µM
TGI (SK-MEL-2 melanoma): > 100 µM
TGI (OVCAR-3 ovarian): > 100 µM
TGI (COLO 205 colon): > 100 µM
TGI (DMS 273 small cell lung): > 100 µM
TGI (786-0 renal): > 100 µM
TGI (HCC-2998 colon): > 100 µM
TGI (ACHN renal): > 100 µM
TGI (MOLT-4 leukemia): > 100 µM
TGI (M14 melanoma): > 100 µM
TGI (SK-OV-3 ovarian): > 100 µM
TGI (SNB-75 CNS): 88.2 µM
TGI (KM12 colon): > 100 µM
TGI (SNB-78 CNS): > 100 µM
TGI (HCT-15 colon): > 100 µM
TGI (UO-31 renal): > 100 µM
TGI (SNB-19 CNS): > 100 µM
TGI (NCI-H460 lung): > 100 µM
TGI (SN12C renal): > 100 µM
TGI (RPMI-8226 leukemia): > 100 µM
TGI (MALME-3M melanoma): > 100 µM
TGI (NCI-H23 lung): > 100 µM
TGI (SW-620 colon): > 100 µM
TGI (KM20L2 colon): > 100 µM
TGI (HOP-92 NSCLC): 85.1 µM

CCCNC(=O)C(C)(Cl)C(=O)c1ccccc1O (configuration not stated)
TGI (UACC-62 melanoma): > 100 µM
TGI (SF-539 CNS): > 100 µM
TGI (K-562 leukemia): > 100 µM
TGI (A498 renal): > 100 µM
TGI (DMS 114 small cell lung): > 100 µM
TGI (NCI-H522 lung): > 100 µM
TGI (CCRF-CEM leukemia): > 100 µM
TGI (DLD-1 colon): > 100 µM
TGI (SR leukemia): > 100 µM
TGI (OVCAR-8 ovarian): > 100 µM
TGI (UACC-257 melanoma): > 100 µM
TGI (M19-MEL melanoma): > 100 µM
TGI (HOP-62 NSCLC): > 100 µM
TGI (HL-60(TB) leukemia): > 100 µM
TGI (U251 CNS): > 100 µM
TGI (HOP-18 NSCLC): > 100 µM
TGI (RXF 393 renal): > 100 µM
TGI (HCT-116 colon): > 100 µM
TGI (NCI-H226 lung): > 100 µM
TGI (A549 NSCLC): > 100 µM
TGI (TK-10 renal): > 100 µM
TGI (SK-MEL-5 melanoma): > 100 µM
TGI (SK-MEL-28 melanoma): > 100 µM
TGI (IGROV1 ovarian): > 100 µM
TGI (LXFL 529 NSCLC): > 100 µM
TGI (OVCAR-4 ovarian): > 100 µM
TGI (SF-268 CNS): > 100 µM
TGI (SK-MEL-2 melanoma): > 100 µM
TGI (OVCAR-3 ovarian): > 100 µM
TGI (COLO 205 colon): > 100 µM
TGI (DMS 273 small cell lung): > 100 µM
TGI (786-0 renal): > 100 µM
TGI (HCC-2998 colon): > 100 µM
TGI (ACHN renal): > 100 µM
TGI (MOLT-4 leukemia): > 100 µM
TGI (CAKI-1 renal): > 100 µM
TGI (M14 melanoma): > 100 µM
TGI (SK-OV-3 ovarian): > 100 µM
TGI (SNB-75 CNS): > 100 µM
TGI (KM12 colon): > 100 µM
TGI (SNB-78 CNS): > 100 µM
TGI (HCT-15 colon): > 100 µM
TGI (UO-31 renal): > 100 µM
TGI (SNB-19 CNS): > 100 µM
TGI (NCI-H460 lung): > 100 µM
TGI (SN12C renal): > 100 µM
TGI (RPMI-8226 leukemia): > 100 µM
TGI (MALME-3M melanoma): > 100 µM
TGI (SW-620 colon): > 100 µM
TGI (KM20L2 colon): > 100 µM

C=CCC12CC(=O)CCC1CC(=O)C2 (configuration not stated)
TGI (UACC-62 melanoma): > 100 µM
TGI (SF-539 CNS): > 100 µM
TGI (K-562 leukemia): > 100 µM
TGI (A498 renal): > 100 µM
TGI (DMS 114 small cell lung): > 100 µM
TGI (NCI-H522 lung): > 100 µM
TGI (CCRF-CEM leukemia): > 100 µM
TGI (DLD-1 colon): > 100 µM
TGI (SR leukemia): > 100 µM
TGI (OVCAR-8 ovarian): > 100 µM
TGI (UACC-257 melanoma): > 100 µM
TGI (M19-MEL melanoma): > 100 µM
TGI (HOP-62 NSCLC): > 100 µM
TGI (HL-60(TB) leukemia): > 100 µM
TGI (U251 CNS): > 100 µM
TGI (HOP-18 NSCLC): > 100 µM
TGI (RXF 393 renal): > 100 µM
TGI (HCT-116 colon): > 100 µM
TGI (NCI-H226 lung): > 100 µM
TGI (A549 NSCLC): > 100 µM
TGI (TK-10 renal): > 100 µM
TGI (SK-MEL-5 melanoma): > 100 µM
TGI (SK-MEL-28 melanoma): > 100 µM
TGI (IGROV1 ovarian): > 100 µM
TGI (LXFL 529 NSCLC): > 100 µM
TGI (OVCAR-4 ovarian): > 100 µM
TGI (SF-268 CNS): > 100 µM
TGI (SK-MEL-2 melanoma): > 100 µM
TGI (OVCAR-3 ovarian): > 100 µM
TGI (COLO 205 colon): > 100 µM
TGI (DMS 273 small cell lung): > 100 µM
TGI (786-0 renal): > 100 µM
TGI (HCC-2998 colon): > 100 µM
TGI (ACHN renal): > 100 µM
TGI (MOLT-4 leukemia): > 100 µM
TGI (CAKI-1 renal): > 100 µM
TGI (M14 melanoma): > 100 µM
TGI (SK-OV-3 ovarian): > 100 µM
TGI (SNB-75 CNS): > 100 µM
TGI (KM12 colon): > 100 µM
TGI (SNB-78 CNS): > 100 µM
TGI (HCT-15 colon): > 100 µM
TGI (UO-31 renal): > 100 µM
TGI (SNB-19 CNS): > 100 µM
TGI (NCI-H460 lung): > 100 µM
TGI (SN12C renal): > 100 µM
TGI (RPMI-8226 leukemia): > 100 µM
TGI (MALME-3M melanoma): > 100 µM
TGI (SW-620 colon): > 100 µM
TGI (KM20L2 colon): > 100 µM
